In the METLIN SMRT retention time set (Domingo-Almenara et al. 2019):

Assay: gradient 5% acetonitrile 3 min, to 50% in 2 min, to 85% in 15 min, held 3 min, 100 µL/min
Conditions: column: Zorbax Extend-C18 2.1 x 50 mm; eluents: water / acetonitrile, 0.1% formic acid
Method in brief: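 The mobile phases were water and acetonitrile, each with 0.1% formic acid, pumped at 100 μL/min through a Zorbax Extend-C18 column (2.1 × 50 mm, 1.8 μm). Pure standards were injected as mixtures of ~100 molecules and detected by a quadrupole time-of-flight mass spectrometer in positive and negative ionization mode. Retention time came from computationally picked adduct peaks, each inspected by hand.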

RP-LC retention time [s] | SMILES
655 | CCN1CCN(c2nc3cc(C(=O)OC)ccc3c(=O)n2-c2ccc(F)c(Cl)c2)CC1
1240 | O=C(NCc1ccccc1Cl)c1c(O)c2cccnc2n(-c2ccc(F)cc2)c1=O
696 | Cc1cccc2cc3cccc(C)c3nc12
700 | Cc1noc(C)c1S(=O)(=O)NCC(c1cccnc1)c1cn(C)c2ccccc12 (configuration not stated)
792 | COc1ccc(-c2c(C)noc2NC(C)=O)cc1S(=O)(=O)Nc1cc(Cl)ccc1C
740 | Cc1ccc(CNC(=O)C2CCCN(c3nnc4ccc(Cl)cn34)C2)o1 (configuration not stated)
1280 | CCOc1nc2ccccc2nc1N1CCCC(C(=O)N2CCN(c3ccccc3)CC2)C1 (configuration not stated)
574 | COc1ccc(CCNC(=O)CSc2nccn2Cc2ccco2)cc1OC
1010 | COc1ccc(NC(=O)N(C)CCc2noc(COc3ccc(Cl)cc3)n2)cc1
946 | Clc1ccc(Nc2c(-c3ccccc3Cl)nc3ccc(Cl)cn23)cc1
770 | O=C(Nc1cccc(-c2ccc(N3CCOCC3)nn2)c1)Nc1cccc(Cl)c1F
854 | CCn1ccc2oc(C)c(C(=O)N3CCN(c4ccc(Cl)cc4)CC3)c2c1=O
855 | O=C(Nc1ccc(F)c(Cl)c1)C1CCc2nc(N3CCOCC3)ncc2C1 (configuration not stated)
882 | COc1ccc(Cc2nc3nccc(-c4ccc(F)cc4)n3n2)cc1
730 | O=C1NCCCn2cc(S(=O)(=O)N3CCN(c4ccc(F)cc4)CC3)cc21
704 | CCOc1ccccc1NC(=O)Cn1c(=O)n(CC(N)=O)c(=O)c2oc3ccccc3c21
678 | Cc1csc(-c2ccc(CNC(=O)C3CCOC3)cc2)n1 (configuration not stated)
639 | NC(=O)C1CCN(C(=O)Cn2c(=O)nc(-c3ccccc3)c3cc(Cl)ccc32)CC1
688 | Cn1cc(CC(=O)NCc2ccc(F)cc2F)c2cccnc21

RP-LC retention time [s] | SMILES
684 | CNc1ncn(-c2c(C)cccc2C)c(=O)n1
750 | CCOc1ccc(CNC(=O)CC2CCN(C(=O)c3[nH]c(C)c(C(=O)OC)c3C)CC2)cc1
914 | CCOCCCNC(=O)N1CCN(c2nc3ccccc3n(Cc3ccccc3)c2=O)CC1
644 | Cc1cccc(OCCc2noc(C3CNC3)n2)c1
1140 | CCc1cc(C(=O)Nc2cc(C)ccc2C)nc2ccnn12
833 | CCOc1ccccc1NC(=O)N1CCCC1c1c(C)noc1C (configuration not stated)
900 | CN(CCc1noc(-c2ccccc2Cl)n1)C(=O)COc1ccccc1
782 | O=C(NCc1cccc(F)c1)c1cc2n(n1)CCCC2
623 | CSc1cccc(NC(=O)Nc2c(-c3ccncc3)nc3ccccn23)c1
829 | Cc1ccc(-c2nnc(CC(=O)NCCC(C)C)o2)cc1
601 | O=C(Cn1cccc1-c1nc(-c2ccccc2)cs1)NCCCN1CCCC1
684 | COc1ccc2c(CCNC(=O)c3ccc4c(c3)OCCO4)c[nH]c2c1
1110 | CCc1nc2cc(-c3noc(-c4ccc5cc[nH]c5c4)n3)ccc2o1
706 | COC(=O)c1ccc(NC(=O)NCCn2c(C(F)(F)F)nc3cccnc32)cc1
1140 | Cc1ccc(F)c(NC(=O)c2c(O)c3cccnc3n(-c3ccc(F)cc3)c2=O)c1
603 | Cc1nc(C2CCN(C(=O)CCc3c[nH]c4ccccc34)CC2)n[nH]1
944 | COc1ccc(Br)c(CC2C(=O)Nc3ccccc32)c1 (configuration not stated)
904 | CN(C)S(=O)(=O)c1ccc(CNC(=O)c2cccc(-c3nnc(-c4ccccc4)o3)c2)s1
